Results published in patent US6355799B1, “Substituted benzene compounds, process for their preparation, and herbicidal and defoliant compositions containing them” (ISK Americas Incorporated, priority 1997, dated 2002).

Assays:
Assay type in all cases: in vivo
[1] = tested on: upland rice (Oryza sp., var. Tebonnet, RICE); assay: Post-emerge test, crop safety; conditions: phytotoxicity rating 0-100 (0 no damage, 100 complete death), 14 days after application
Summary of the method: (§1)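 Visual ratings on a 0-100 scale (0 no damage, 100 all plants dead) were taken at 14 days after treatment. Rates of 15-1000 g ai/ha in acetone, 187 l/ha, were sprayed onto soil one day after planting (pre-emerge) or onto 2-3 leaf plants with 0.25% v/v surfactant (post-emerge).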

[2] = tested on: field corn (Zea mays L., var. Dekalb 535, CORN); assay: Post-emerge test, crop safety; conditions: phytotoxicity rating 0-100 (0 no damage, 100 complete death), 14 days after application
Summary of the method: as §1

[3] = tested on: lambsquarters (Chenopodium album, CHEAL); assay: Pre-emerge test, greenhouse herbicide activity screening; conditions: pre-emerge, rated 14 days after application, 0 = no damage, 100 = complete death
Summary of the method: as §1

[4] = tested on: large crabgrass (Digitaria sanguinalis, DIGSA); assay: as above; conditions: pre-emerge, rated 14 days after application, 0 = no damage, 100 = complete death
Summary of the method: as §1

[5] = tested on: barnyardgrass (Echinochloa crus-galli, ECHCG); assay: as above; conditions: pre-emerge, rated 14 days after application, 0 = no damage, 100 = complete death
Summary of the method: as §1

[6] = tested on: common ragweed (Ambrosia artemisizfolia L., AMBEL); assay: as above; conditions: pre-emerge, rated 14 days after application, 0 = no damage, 100 = complete death
Summary of the method: as §1

[7] = tested on: johnsongrass (Sorghum halepense, SORHA); assay: as above; conditions: pre-emerge, rated 14 days after application, 0 = no damage, 100 = complete death
Summary of the method: as §1

[8] = tested on: green foxtail (Setaria viridis, SETVI); assay: as above; conditions: pre-emerge, rated 14 days after application, 0 = no damage, 100 = complete death
Summary of the method: as §1

[9] = tested on: velvetleaf (Abutilon theophrasti, ABUTH); assay: as above; conditions: pre-emerge, rated 14 days after application, 0 = no damage, 100 = complete death
Summary of the method: as §1

[10] = tested on: sicklepod (Cassia obtusifolia, CASOB); assay: as above; conditions: pre-emerge, rated 14 days after application, 0 = no damage, 100 = complete death
Summary of the method: as §1

[11] = tested on: ivyleaf morningglory (Ipomoea hederacea, IPOHE); assay: as above; conditions: pre-emerge, rated 14 days after application, 0 = no damage, 100 = complete death
Summary of the method: as §1

[12] = tested on: upland rice (Oryza sp., var. Tebonnet, RICE); assay: Pre-emerge test, crop safety; conditions: pre-emerge, rated 14 days after application, 0 = no damage, 100 = complete death
Summary of the method: as §1

[13] = tested on: field corn (Zea mays L., var. Dekalb 535, CORN); assay: Pre-emerge test, crop safety; conditions: pre-emerge, rated 14 days after application, 0 = no damage, 100 = complete death
Summary of the method: as §1

[14] = tested on: redroot pigweed (Amaranthus retroflexus, AMARE); assay: Pre-emerge test, greenhouse herbicide activity screening; conditions: pre-emerge, rated 14 days after application, 0 = no damage, 100 = complete death
Summary of the method: as §1

[15] = tested on: lambsquarters (Chenopodium album, CHEAL); assay: Post-emerge test, greenhouse herbicide activity screening; conditions: phytotoxicity rating 0-100 (0 no damage, 100 complete death), 14 days after application
Summary of the method: (§2)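 Herbicidal damage is scored 0 (none) to 100 (complete plant death) two weeks after a simulated field spray. Rates span 15–1000 g ai/ha, delivered in acetone at 187 l/ha. For post-emergence treatments, plants have 2–3 leaves and the spray carries 0.25% v/v non-ionic surfactant.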

[16] = tested on: large crabgrass (Digitaria sanguinalis, DIGSA); assay: as above; conditions: phytotoxicity rating 0-100 (0 no damage, 100 complete death), 14 days after application
Summary of the method: as §2

[17] = tested on: barnyardgrass (Echinochloa crus-galli, ECHCG); assay: as above; conditions: phytotoxicity rating 0-100 (0 no damage, 100 complete death), 14 days after application
Summary of the method: as §2

[18] = tested on: redroot pigweed (Amaranthus retroflexus, AMARE); assay: as above; conditions: phytotoxicity rating 0-100 (0 no damage, 100 complete death), 14 days after application
Summary of the method: as §2

[19] = tested on: common ragweed (Ambrosia artemisizfolia L., AMBEL); assay: as above; conditions: phytotoxicity rating 0-100 (0 no damage, 100 complete death), 14 days after application
Summary of the method: as §2

[20] = tested on: johnsongrass (Sorghum halepense, SORHA); assay: as above; conditions: phytotoxicity rating 0-100 (0 no damage, 100 complete death), 14 days after application
Summary of the method: as §2

[21] = tested on: green foxtail (Setaria viridis, SETVI); assay: as above; conditions: phytotoxicity rating 0-100 (0 no damage, 100 complete death), 14 days after application
Summary of the method: as §2

[22] = tested on: velvetleaf (Abutilon theophrasti, ABUTH); assay: as above; conditions: phytotoxicity rating 0-100 (0 no damage, 100 complete death), 14 days after application
Summary of the method: as §2

[23] = tested on: sicklepod (Cassia obtusifolia, CASOB); assay: as above; conditions: phytotoxicity rating 0-100 (0 no damage, 100 complete death), 14 days after application
Summary of the method: as §2

[24] = tested on: ivyleaf morningglory (Ipomoea hederacea, IPOHE); assay: as above; conditions: phytotoxicity rating 0-100 (0 no damage, 100 complete death), 14 days after application
Summary of the method: as §2

COc1c(Cl)cc(F)c(-n2c(=O)cc(C(F)(F)F)n(C)c2=O)c1NC(=O)C(F)(F)F [2-10]
5: Post-emerge Herbicidal Activity RICE (crop damage) ([1]; 250 g ai/ha) | Post-emerge Herbicidal Activity CORN (crop damage) ([2]; 63 g ai/ha)
40: Pre-emerge Herbicidal Activity SETVI (phytotoxicity rating, scale 0-100) ([8]; 63 g ai/ha) | Pre-emerge crop damage CORN (phytotoxicity rating, scale 0-100) ([13]; 250 g ai/ha) | Post-emerge Herbicidal Activity DIGSA ([16]; 250 g ai/ha)
30: Pre-emerge crop damage RICE (phytotoxicity rating, scale 0-100) ([12]; 250 g ai/ha) | Post-emerge Herbicidal Activity AMARE ([18]; 250 g ai/ha)
20: Post-emerge Herbicidal Activity SORHA ([20]; 250 g ai/ha)
95: Pre-emerge Herbicidal Activity DIGSA (phytotoxicity rating, scale 0-100) ([4]; 250 g ai/ha) | Pre-emerge Herbicidal Activity ECHCG (phytotoxicity rating, scale 0-100) ([5]; 250 g ai/ha) | Post-emerge Herbicidal Activity ABUTH ([22]; 63 g ai/ha)
60: Pre-emerge Herbicidal Activity IPOHE (phytotoxicity rating, scale 0-100) ([11]; 63 g ai/ha) | Post-emerge Herbicidal Activity ECHCG ([17]; 250 g ai/ha) | Post-emerge Herbicidal Activity IPOHE ([24]; 63 g ai/ha)
0: Post-emerge Herbicidal Activity RICE (crop damage) ([1]; 63 g ai/ha) | Post-emerge Herbicidal Activity CORN (crop damage) ([2]; 250 g ai/ha) | Pre-emerge Herbicidal Activity ECHCG (phytotoxicity rating, scale 0-100) ([5]; 63 g ai/ha) | Pre-emerge Herbicidal Activity SORHA (phytotoxicity rating, scale 0-100) ([7]; 63 g ai/ha) | Pre-emerge crop damage RICE (phytotoxicity rating, scale 0-100) ([12]; 63 g ai/ha) | Pre-emerge crop damage CORN (phytotoxicity rating, scale 0-100) ([13]; 63 g ai/ha) | Post-emerge Herbicidal Activity DIGSA ([16]; 63 g ai/ha) | Post-emerge Herbicidal Activity ECHCG ([17]; 63 g ai/ha) | Post-emerge Herbicidal Activity AMARE ([18]; 63 g ai/ha) | Post-emerge Herbicidal Activity AMBEL ([19]; 63 g ai/ha) | Post-emerge Herbicidal Activity SORHA ([20]; 63 g ai/ha) | Post-emerge Herbicidal Activity SETVI ([21]; 63 g ai/ha) | Post-emerge Herbicidal Activity CASOB ([23]; 63 g ai/ha)
70: Post-emerge Herbicidal Activity SETVI ([21]; 250 g ai/ha)
90: Pre-emerge Herbicidal Activity DIGSA (phytotoxicity rating, scale 0-100) ([4]; 63 g ai/ha) | Pre-emerge Herbicidal Activity CASOB (phytotoxicity rating, scale 0-100) ([10]; 250 g ai/ha) | Post-emerge Herbicidal Activity CHEAL ([15]; 250 g ai/ha)
80: Pre-emerge Herbicidal Activity SORHA (phytotoxicity rating, scale 0-100) ([7]; 250 g ai/ha)
10: Post-emerge Herbicidal Activity CASOB ([23]; 250 g ai/ha)
100: Pre-emerge Herbicidal Activity CHEAL (phytotoxicity rating, scale 0-100) ([3]; 63 g ai/ha) | Pre-emerge Herbicidal Activity CHEAL (phytotoxicity rating, scale 0-100) ([3]; 250 g ai/ha) | Pre-emerge Herbicidal Activity AMBEL (phytotoxicity rating, scale 0-100) ([6]; 63 g ai/ha) | Pre-emerge Herbicidal Activity AMBEL (phytotoxicity rating, scale 0-100) ([6]; 250 g ai/ha) | Pre-emerge Herbicidal Activity SETVI (phytotoxicity rating, scale 0-100) ([8]; 250 g ai/ha) | Pre-emerge Herbicidal Activity ABUTH (phytotoxicity rating, scale 0-100) ([9]; 63 g ai/ha) | Pre-emerge Herbicidal Activity ABUTH (phytotoxicity rating, scale 0-100) ([9]; 250 g ai/ha) | Pre-emerge Herbicidal Activity IPOHE (phytotoxicity rating, scale 0-100) ([11]; 250 g ai/ha) | Pre-emerge Herbicidal Activity AMARE (phytotoxicity rating, scale 0-100) ([14]; 250 g ai/ha) | Post-emerge Herbicidal Activity ABUTH ([22]; 250 g ai/ha) | Post-emerge Herbicidal Activity IPOHE ([24]; 250 g ai/ha)
50: Pre-emerge Herbicidal Activity CASOB (phytotoxicity rating, scale 0-100) ([10]; 63 g ai/ha) | Pre-emerge Herbicidal Activity AMARE (phytotoxicity rating, scale 0-100) ([14]; 63 g ai/ha) | Post-emerge Herbicidal Activity CHEAL ([15]; 63 g ai/ha) | Post-emerge Herbicidal Activity AMBEL ([19]; 250 g ai/ha)
